Reference: patent publication US7056892B2, “Glucopyranosyloxypyrazole derivatives, medicinal compositions containing the same and intermediates in the production thereof” (Kissei Pharmaceutical Co., Ltd., priority 1999, dated 2006)

Columns and labels:
[1] = system: ICR mice; assay: Acute toxicity test, Method B (subcutaneous); assay type: in vivo; conditions: 600 mg/kg subcutaneous, male ICR mice, 5 animals, observation until 24 hours
Protocol: By adding of the solvent (saline:polyethylene glycol 400:ethanol=5:4:1) to the test compound, 200 mg/mL suspension was prepared. As experimental animal, male 5 weeks of age ICR mice fasted for 4 hours (Clea Japan, 26–33 g, 5 animals in each group) were used. The test suspension described above was subcutaneously administrated to the experimental animals described above at the dose of 3 mL/kg (600 mg/kg) and then observation was performed until 24 hours after the administration.

[2] = system: SD rats; assay: Assay for the facilitatory effect on urinary glucose excretion, Method B (intravenous); assay type: in vivo, rat; conditions: oral glucose 2 g/kg, 24 hours, per 200 g of body weight
Protocol: (§1) Assay for the Facilitatory Effect on Urinary Glucose Excretion
As experimental animal, overnight fasted SD rats (SLC, male, 7 weeks of age, 180–220 g) were used. A test compound (10 mg) was suspended or dissolved in 300 μL of ethanol and dissolved by adding of 1.2 mL of polyethylene glycol 400 and 1.5 mL of saline and then 3.3 mg/mL solution was prepared. A part of this solution was diluted with the solvent (saline:polyethylene glycol 400:ethanol=5:4:1) and then each solution at the concentration of 3.3, 0.33 or 0.033 (mg/mL) was prepared. After the body weights of the rats were measured, the test compound solution was administrated by intravenous injection to the tail vein at the dose of 3 mL/kg (10, 1 and 0.1 mg/kg). For the control, just only the solvent (saline:polyethylene glycol 400:ethanol=5:4:1) was administrated by intravenous injection to the tail vein at the dose of 3 mL/kg. Immediately after this intravenous administration, 200 g/L glucose solution was orally administered at the dose of 10 mL/kg (2 g/kg). The intravenous administration was performed with 26G needle and 1 mL syringe. The oral administration was performed with gastric tube for rat and 2.5 mL syringe. The head count in one group was 3. Collection of urine was performed in metabolic cage after the glucose administration was finished. The sampling time for collection of urine was 24 hours after the glucose administration. After collection of urine was finished, the urine volume was recorded and the urinary glucose concentration was measured. The glucose concentration was measured with a kit for laboratory test: Glucose B-Test WAKO (Wako Pure Chemical Industries, Ltd.). The amount of urinary glucose excretion in 24 hours per 200 g of body weight was calculated from urine volume, urinary glucose concentration and body weight.

[3] = system: SD rats; assay: Assay for the facilitatory effect on urinary glucose excretion, Method A (subcutaneous); assay type: in vivo, rat; conditions: oral glucose 2 g/kg, 4 hours, per 1 body
Protocol: as §1
As experimental animal, overnight fasted SD rats (SLC, male, 5 weeks of age, 120–150 g) were used. Test compound (25.40 mg) was suspended in 762 μL of ethanol and dissolved by adding of 3.048 mL of polyethylene glycol 400 and 3.81 mL of saline and then 3.3 mg/mL solution was prepared. A part of this solution was diluted with the solvent (saline:polyethylene glycol 400:ethanol=5:4:1) and then each solution at the concentration of 3.3, 1 or 0.33 (mg/mL) was prepared. Each of these solutions was subcutaneously administrated to the rats at the dose of 3 mL/kg (10, 3 and 1 mg/kg). For the control, just only the solvent (saline:polyethylene glycol 400:ethanol=5:4:1) was subcutaneously administrated at the dose of 3 mL/kg. Immediately after this subcutaneous administration, 200 g/L glucose solution was orally administered at the dose of 10 mL/kg (2 g/kg). The subcutaneous administration was performed with 26G needle and 1 mL syringe. The oral administration was performed with gastric tube for rat and 2.5 mL syringe. The head count in one group was 3. Collection of urine was performed in metabolic cage after these administrations were finished. The sampling time for collection of urine was 4 hours after the glucose administration. After collection of urine was finished, the urine volume was recorded and the urinary glucose concentration was measured. The glucose concentration was measured with a kit for laboratory test: Glucose B-Test WAKO (Wako Pure Chemical Industries, Ltd.). The amount of urinary glucose excretion in 4 hours per 1 body was calculated from urine volume and urinary glucose concentration.

[4] = system: ICR mice; assay: Acute toxicity test, Method A (oral); assay type: in vivo; conditions: 1000 mg/kg oral, male ICR mice, 5 animals, observation until 24 hours
Protocol: By adding of 0.5% sodium carboxymethylcellulose solution to the test compound, 100 mg/mL suspension was prepared. As experimental animal, male 6–7 weeks of age ICR mice fasted for 4 hours (Clea Japan, 28–33 g, 5 animals in each group) were used. The test suspension described above was orally administrated to the experimental animals described above at the dose of 10 mL/kg (1000 mg/kg) and then observation was performed until 24 hours after the administration.

[5] = target: T1, human SGLT2 (Homo sapiens, UniProt P31639, I433V); assay: Assay for inhibitory effect on human SGLT2 activity (uptake of methyl-α-D-glucopyranoside in COS-7 cells expressing transiently human SGLT2); assay type: cell-based
T1 construct: expressed in transfected cells; host or cells: COS-7 cells (RIKEN CELL BANK RCB0539), transient electroporation of plasmid KL29
T1 sequence (P31639 1-672 I433V): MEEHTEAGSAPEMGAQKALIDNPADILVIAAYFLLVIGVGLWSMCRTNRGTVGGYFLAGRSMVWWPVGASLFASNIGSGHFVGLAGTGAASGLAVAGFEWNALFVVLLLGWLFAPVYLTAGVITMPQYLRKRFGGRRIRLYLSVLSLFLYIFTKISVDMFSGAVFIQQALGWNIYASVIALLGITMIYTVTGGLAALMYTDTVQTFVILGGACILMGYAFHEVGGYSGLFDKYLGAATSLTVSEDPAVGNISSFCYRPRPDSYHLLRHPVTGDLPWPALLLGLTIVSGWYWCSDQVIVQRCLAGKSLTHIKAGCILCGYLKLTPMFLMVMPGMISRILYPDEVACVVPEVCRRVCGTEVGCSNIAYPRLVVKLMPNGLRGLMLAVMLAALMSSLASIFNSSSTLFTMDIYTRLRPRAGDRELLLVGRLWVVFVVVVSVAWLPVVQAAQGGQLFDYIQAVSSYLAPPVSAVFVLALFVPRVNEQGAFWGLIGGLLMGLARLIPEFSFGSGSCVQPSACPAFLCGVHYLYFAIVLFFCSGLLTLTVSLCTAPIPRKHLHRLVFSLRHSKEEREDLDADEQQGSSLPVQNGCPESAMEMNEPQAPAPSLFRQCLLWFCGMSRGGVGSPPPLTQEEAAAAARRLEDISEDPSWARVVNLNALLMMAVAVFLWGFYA
Protocol: Assay for Inhibitory Effect on Human SGLT2 Activity
1) Construction of the Plasmid Vector Expressing Human SGLT2
Preparation of the cDNA library for PCR amplification was performed by reverse transcription of a total RNA deprived from human kidney (Ori gene) with oligo dT as the primer, using Super Script preamplification system (Gibco-BRL: LIFE TECHNOLOGIES). The DNA fragment coding for human SGLT2 was amplified by the PCR reaction, in which the human kidney cDNA library described above was used as the template and the following oligo nucleotides 0702F and 0712R, presented as sequence number 1 and 2 respectively, were used as the primers. The amplified DNA fragment was ligated into pCR (Invitrogen), a vector for cloning, according to standard method of the kit. The Escherichia coli HB101 was transformed according to usual method and then selection of the transformants was performed on the LB agar medium containing 50 μg/mL of kanamycin. […] After plasmid DNA was extracted and purified from this transformant, the base sequence of the DNA fragment inserted at the multi-cloning sites of the vector pcDNA3.1 (−) Myc/His-B was analyzed. […]

[6] = system: normal mice; conditions: J. Med. Chem., Vol. 39, pp. 3920–3928 (1996); cited from earlier work

Compound	Death number [1]	Amount of Urinary Glucose Excretion ([2]; 0.1 mg/kg intravenous) [mg]	Amount of Urinary Glucose Excretion ([2]; 1 mg/kg intravenous) [mg]	Amount of Urinary Glucose Excretion ([2]; 10 mg/kg intravenous) [mg]	Amount of Urinary Glucose Excretion ([3]; 1 mg/kg subcutaneous) [mg]	Amount of Urinary Glucose Excretion ([3]; 3 mg/kg subcutaneous) [mg]	Amount of Urinary Glucose Excretion ([3]; 10 mg/kg subcutaneous) [mg]	Death number [4]	IC50 ([5]; COS-7 cells expressing transiently human SGLT2, uptake of methyl-α-D-(U-14C)glucopyranoside, 37° C., 2 hours) [µM]	inhibitory activity in human SGLT2 (in words) ([5]; assay for inhibitory effect on human SGLT2 activity)	amount of excreted glucose [6]
Cc1[nH]nc(O[C@@H]2O[C@H](CO)[C@@H](O)[C@H](O)[C@H]2O)c1Cc1ccc(OC(C)C)cc1 [Example 35, 3-(β-D-Glucopyranosyloxy)-4-[(4-isopropoxyphenyl)methyl]-5-methyl-1H-pyrazole]	0/5	16	74	188	–	–	–	–	–	–	–
Cc1[nH]nc(O[C@@H]2O[C@H](CO)[C@@H](O)[C@H](O)[C@H]2O)c1Cc1ccc(C(C)C)cc1 [Example 45, 3-(β-D-Glucopyranosyloxy)-4-[(4-isopropylphenyl)methyl]-5-methyl-1H-pyrazole]	–	2	45	132	22.1	83.2	153.3	0/5	–	–	–
CSc1ccc(Cc2c(C(F)(F)F)[nH][nH]c2=O)cc1 [WAY-123783]	–	–	–	–	–	–	–	–	> 100	extremely weak inhibitory activity	increased
